What all share (format): cell-based
The test system of assay [1] is BxPC3. Description: Cytotoxicity, propidium iodide assay, BxPC3. The note with it: Homo sapiens, BXPC-3; Pancreatic, BxPC3, 48 hours treatment; read-out: IC50, C5c (BxPC3). How it is done: (§1) The assay was designed as in the reference, Anticancer Drugs, 2002, 13, 1-8, the disclosure of which is incorporated by reference for the teaching of the assay.
(§2) Cells from cell lines as mentioned in the table given below were seeded at a density of 3000 cells/well in a white opaque 96-well plate. Following incubation at 37° C./5% CO2 for a period of 18-24 hours, the cells were treated with various concentrations (stock solution was prepared in DMSO and subsequent dilutions were made in media as per ATCC guidelines) of the compounds of Example 1-40 was for a period of 48 hours. At the end of treatment, the spent culture medium was discarded, the cells were washed with 1×PBS and 200 μl of 7 μg/ml propidium iodide was added to each well. The plates were frozen at −70° C. for at least 24 hours. For analysis, the plates were brought to RT, allowed to thaw and were read in PoleStar fluorimeter with the fluorescence setting. The percentage of viable cells in the non-treated set of wells was considered to be 100 and the percentage viability following treatment was calculated accordingly. IC50 values were calculated from graphs plotted using these percentages. Table 4 depicts the IC50 values of compounds of Example 1-40 in individual cell lines.
(§3) The abbreviations for the Cell Lines as used in Table 4 are: […]

Assay [2] concerns U 87 MG. Put plainly: Cytotoxicity, propidium iodide assay, U 87 MG. Particulars: Homo sapiens, Glioblastoma, 48 hours treatment, read-out: IC50, C7b (U 87 MG). Here is the method:
as §1, §2, §3

Assay [3] deals with MDA MB 231. Put plainly: Cytotoxicity, propidium iodide assay, MDA MB 231. The note with it: Homo sapiens; Breast, MDA MB 231, 48 hours treatment; read-out: IC50, C6a (MDA MB 231). How it is done: as §1, §2, §3
For assay [4], the system named is MCF7. Put plainly: Cytotoxicity, propidium iodide assay, MCF7. Particulars: Homo sapiens; Breast, MCF7, 48 hours treatment; read-out: IC50, C6c (MCF7). Here is the method: as §1, §2, §3
For assay [5], the system named is BT 549. Put plainly: Cytotoxicity, propidium iodide assay, BT 549. The note with it: Homo sapiens; Breast, BT 549, 48 hours treatment; read-out: IC50, C6d (BT 549). Here is the method:
as §1, §2, §3

Assay [6] relates to T47D. Description: Cytotoxicity, propidium iodide assay, T47D. Particulars: Homo sapiens, Breast, 48 hours treatment, read-out: IC50, C6e (T47D). How it is done: as §1, §2, §3

SMILES strings stand for the structures.

Regarding `Cc1cccc(S(=O)(=O)n2c(=O)n(-c3ccc(C(C)(C)C#N)cc3)c3c4cc(Br)ccc4ncc32)c1` [Example 3, 2-(4-(8-Bromo-2-oxo-3-(m-tolylsulfonyl)-2,3-dihydro-1H-imidazo[4,5-c]quinolin-1-yl)phenyl)-2-methylpropanenitrile], the IC50 in assay [1] is at most 1000 nM; in assay [2] it was 1000 to 3000 nM.
Turning to `C/C=C/C(=O)n1c(=O)n(-c2ccc(C(C)(C)C#N)cc2)c2c3cc(Br)ccc3ncc21` [Example 27, (E)-2-(4-(8-Bromo-3-but-2-enoyl-2-oxo-2,3-dihydro-1H-imidazo[4,5-c]quinolin-1-yl)phenyl)-2-methylpropanenitrile], the IC50 in assay [3], in assay [4], in assay [5] and in assay [6] was at most 1000 nM in each case.
With `CC(C)(C#N)c1ccc(-n2c(=O)n(C(=O)c3ccccc3)c3cnc4ccc(Br)cc4c32)cc1` [Example 30, 2-(4-(3-Benzoyl-8-bromo-2-oxo-2,3-dihydro-1H-imidazo[4,5-c]quinolin-1-yl)phenyl)-2-methylpropanenitrile], in assay [1], the IC50 was at most 1000 nM.
Turning to `CC(C)(C#N)c1ccc(-n2c(=O)n(C(=O)c3ccccc3)c3cnc4ccc(Cl)cc4c32)cc1` [Example 37, 2-(4-(3-Benzoyl-8-chloro-2-oxo-2,3-dihydro-1H-imidazo[4,5-c]quinolin-1-yl)phenyl)-2-methylpropanenitrile], the IC50 in assay [2] was above 3000 nM.
Consider `C/C=C/C(=O)n1c(=O)n(-c2ccc(C(C)(C)C#N)cc2)c2c3cc(Cl)ccc3ncc21` [Example 38, (E)-2-(4-(3-But-2-enoyl-8-chloro-2-oxo-2,3-dihydro-1H-imidazo[4,5-c]quinolin-1-yl)phenyl)-2-methylpropanenitrile], for which the IC50 in assay [3], in assay [4], in assay [5] and in assay [6] was at most 1000 nM in each case.

The term IC50 denotes the concentration needed to halve the response being measured.

The values are drawn from patent US8637670B2, “Imidazo [4,5-C]quinoline derivatives and their use in the treatment of tumors and/or inflammation” (Piramal Enterprises Limited, priority 2009, dated 2014).
